Starred links: 1 amine or outer side, 2 acyl side, 3 side chain; linkers in the order of their positions; H or OH if unused. Positions of bridges follow the written chain, without caps; N, C: chain ends. Residues, ends and D or L forms follow the SMILES beside them. Chains are numbered I, II in the order given. *: point of attachment. X1 = NC12CC3(C(=O)NCCCCCC(=O)[*:1])CC(C(=O)NCCCCCC(=O)[*:2])(C1)CC(C(=O)NCCCCCC(=O)[*:3])(C2)C3; X2 = O=C(CCC(=O)[*:1])NCCCC12CC3CC(CCCNC(=O)CCC(=O)[*:2])(C1)CC(CCCNC(=O)CCC(=O)[*:3])(C3)C2; Diglycolyl = O=C(COCC(=O)[*:2])[*:1]; X3 = CC(C)C[C@@H](C)N*
Biological target: Tumor necrosis factor receptor superfamily member 10B (Homo sapiens, UniProt O14763)
Sequence (O14763 whole entry): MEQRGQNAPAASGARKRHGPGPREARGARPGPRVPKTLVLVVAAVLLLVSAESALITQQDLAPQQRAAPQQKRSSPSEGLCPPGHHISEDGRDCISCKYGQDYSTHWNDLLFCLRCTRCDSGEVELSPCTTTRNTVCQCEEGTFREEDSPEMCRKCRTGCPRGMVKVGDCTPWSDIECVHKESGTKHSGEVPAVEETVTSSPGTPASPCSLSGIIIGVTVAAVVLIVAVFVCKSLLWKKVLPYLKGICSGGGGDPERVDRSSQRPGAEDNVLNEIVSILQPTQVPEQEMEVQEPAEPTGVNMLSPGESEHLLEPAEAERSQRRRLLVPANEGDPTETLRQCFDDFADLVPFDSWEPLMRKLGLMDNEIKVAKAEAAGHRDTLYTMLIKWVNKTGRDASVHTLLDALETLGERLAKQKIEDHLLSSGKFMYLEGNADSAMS
Assay: Binding affinity to human recombinant DR5 assessed as dissociation constant by SPR analysis

Which Kd does the source give for `CC[C@H](C)[C@@H]1NC(=O)[C@H](CCCCNC(=O)COCC(=O)NCCCC[C@@H]2NC(=O)[C@H](CC(N)=O)NC(=O)[C@H](CC(=O)O)NC(=O)[C@H](CC(C)C)NC(=O)[C@@H](NC(=O)[C@H](CC(=O)O)NC(=O)[C@H](Cc3c[nH]c4ccccc34)NC(C)=O)CSSC[C@@H](C(=O)N[C@H](C(=O)N[C@@H](CCCCN)C(=O)N[C@@H](CC(C)C)C(N)=O)C(C)C)NC(=O)[C@H](CCC(N)=O)NC(=O)[C@H](CCCNC(=N)N)NC(=O)[C@H](CCCNC(=N)N)NC(=O)CNC(=O)[C@H]([C@@H](C)CC)NC2=O)NC(=O)[C@H](CC(N)=O)NC(=O)[C@H](CC(=O)O)NC(=O)[C@H](CC(C)C)NC(=O)[C@@H](NC(=O)[C@H](CC(=O)O)NC(=O)[C@H](Cc2c[nH]c3ccccc23)NC(C)=O)CSSC[C@@H](C(=O)N[C@H](C(=O)N[C@@H](CCCCN)C(=O)N[C@@H](CC(C)C)C(N)=O)C(C)C)NC(=O)[C@H](CCC(N)=O)NC(=O)[C@H](CCCNC(=N)N)NC(=O)[C@H](CCCNC(=N)N)NC(=O)CNC1=O` (I: Ac-WDCLDNKIGRRQCVKL-NH2 / II: Ac-WDCLDNKIGRRQCVKL-NH2; disulfide I:3-I:13, II:3-II:13; linker I:7-II:7 via Diglycolyl) here?
The Kd was 2.29 nM.

Which Kd does the source give for `CC[C@H](C)[C@@H]1NC(=O)[C@H](CCCNC(=N)N)NC(=O)[C@H](CC(N)=O)NC(=O)[C@H](CC(=O)O)NC(=O)[C@H](CC(C)C)NC(=O)[C@@H](NC(=O)[C@H](CC(=O)O)NC(=O)[C@H](Cc2c[nH]c3ccccc23)NC(C)=O)CSSC[C@@H](C(=O)N[C@H](C(=O)N[C@@H](CCCCN)C(=O)N[C@@H](CC(C)C)C(N)=O)C(C)C)NC(=O)[C@H](CCC(N)=O)NC(=O)[C@H](CCCNC(=N)N)NC(=O)[C@H](CCCCNC(=O)COCC(=O)NCCCC[C@@H]2NC(=O)CNC(=O)[C@H]([C@@H](C)CC)NC(=O)[C@H](CCCNC(=N)N)NC(=O)[C@H](CC(N)=O)NC(=O)[C@H](CC(=O)O)NC(=O)[C@H](CC(C)C)NC(=O)[C@@H](NC(=O)[C@H](CC(=O)O)NC(=O)[C@H](Cc3c[nH]c4ccccc34)NC(C)=O)CSSC[C@@H](C(=O)N[C@H](C(=O)N[C@@H](CCCCN)C(=O)N[C@@H](CC(C)C)C(N)=O)C(C)C)NC(=O)[C@H](CCC(N)=O)NC(=O)[C@H](CCCNC(=N)N)NC2=O)NC(=O)CNC1=O` (I: Ac-WDCLDNRIGKRQCVKL-NH2 / II: Ac-WDCLDNRIGKRQCVKL-NH2; disulfide I:3-I:13, II:3-II:13; linker I:10-II:10 via Diglycolyl) here?
Its Kd is 0.114 nM.

With `CC[C@H](C)[C@@H]1NC(=O)[C@H](CCCNC(=N)N)NC(=O)[C@H](CC(N)=O)NC(=O)[C@H](CC(=O)O)NC(=O)[C@H](CC(C)C)NC(=O)[C@@H](NC(=O)[C@H](CC(=O)O)NC(=O)[C@H](Cc2c[nH]c3ccccc23)NC(C)=O)CSSC[C@@H](C(=O)N[C@H](C(=O)N[C@@H](CCCCNC(=O)COCC(=O)NCCCC[C@H](NC(=O)[C@@H](NC(=O)[C@@H]2CSSC[C@H](NC(=O)[C@H](CC(=O)O)NC(=O)[C@H](Cc3c[nH]c4ccccc34)NC(C)=O)C(=O)N[C@@H](CC(C)C)C(=O)N[C@@H](CC(=O)O)C(=O)N[C@@H](CC(N)=O)C(=O)N[C@@H](CCCNC(=N)N)C(=O)N[C@@H]([C@@H](C)CC)C(=O)NCC(=O)N[C@@H](CCCNC(=N)N)C(=O)N[C@@H](CCCNC(=N)N)C(=O)N[C@@H](CCC(N)=O)C(=O)N2)C(C)C)C(=O)N[C@@H](CC(C)C)C(N)=O)C(=O)N[C@@H](CC(C)C)C(N)=O)C(C)C)NC(=O)[C@H](CCC(N)=O)NC(=O)[C@H](CCCNC(=N)N)NC(=O)[C@H](CCCNC(=N)N)NC(=O)CNC1=O` (I: Ac-WDCLDNRIGRRQCVKL-NH2 / II: Ac-WDCLDNRIGRRQCVKL-NH2; disulfide I:3-I:13, II:3-II:13; linker I:15-II:15 via Diglycolyl) as the compound, how does the Kd read?
Its Kd is 1.24 nM.

For “I: Ac-WDCLDNKIGRRQCVKL-NH2 / II: Ac-WDCLDNKIGRRQCVKL-NH2 / III: Ac-WDCLDNKIGRRQCVKL-NH2 (disulfide I:3-I:13, II:3-II:13, III:3-III:13; linker I:7-II:7-III:7 via X2)”, which Kd is on record?
Its Kd is 0.05 nM.

How did the Kd turn out when “I: Ac-WDCLDNRIGKRQCVKL-NH2 / II: Ac-WDCLDNRIGKRQCVKL-NH2 / III: Ac-WDCLDNRIGKRQCVK-X3 (disulfide I:3-I:13, II:3-II:13, III:3-III:13; linker I:10-II:10-III:10 via X2)” was run?
Its Kd is 0.539 nM.

For “I: Ac-WDCLDNRIGRRQCVKL-NH2 / II: Ac-WDCLDNRIGRRQCVKL-NH2 / III: Ac-WDCLDNRIGRRQCVKL-NH2 (disulfide I:3-I:13, II:3-II:13, III:3-III:13; linker I:15-II:15-III:15 via X1)”, which Kd is on record?
Its Kd is 9.1 nM.

How did the Kd turn out when “I: Ac-WDCLDNRIGRRQCVKL-NH2 / II: Ac-WDCLDNRIGRRQCVKL-NH2 / III: Ac-WDCLDNRIGRRQCVKL-NH2 (disulfide I:3-I:13, II:3-II:13, III:3-III:13; linker I:15-II:15-III:15 via X2)” was run?
Its Kd is 0.88 nM.

Tested on: BJAB
Assay: Antiproliferative activity against human BJAB cells assessed as reduction in cell viability incubated for 16 hrs by MTS assay
Type: functional, cell-based

With “I: Ac-WDCLDNRIGRRQCVKL-NH2 / II: Ac-WDCLDNRIGRRQCVKL-NH2 / III: Ac-WDCLDNRIGRRQCVKL-NH2 (disulfide I:3-I:13, II:3-II:13, III:3-III:13; linker I:15-II:15-III:15 via X1)” as the compound, how does the IC50 read?
Its IC50 is 31.2 nM.
